Six compounds from US11401279B2, “Pyrido[3,2-d]pyrimidine compounds as immunomodulators” (Incyte Corporation, priority 2019, dated 2022) can be followed below.

In one series the target is PD-1/PD-L1 (Homo sapiens (Human), UniProt Q9NZQ7). The experiment in a line: Homogeneous Time-Resolved Fluorescence (HTRF) PD-1/PD-L1 binding assay. The conditions noted are these: recombinant human PD-1 and PD-L1. The method, then:
The assays were conducted in a standard black 384-well polystyrene plate with a final volume of 20 μL. Inhibitors were first serially diluted in DMSO and then added to the plate wells before the addition of other reaction components. The final concentration of DMSO in the assay was 1%. The assays were carried out at 25° C. in the PBS buffer (pH 7.4) with 0.05% Tween-20 and 0.1% BSA. Recombinant human PD-L1 protein (19-238) with a His-tag at the C-terminus was purchased from AcroBiosystems (PD1-H5229). Recombinant human PD-1 protein (25-167) with Fc tag at the C-terminus was also purchased from AcroBiosystems (PD1-H5257). PD-L1 and PD-1 proteins were diluted in the assay buffer and 10 μL was added to the plate well. Plates were centrifuged and proteins were preincubated with inhibitors for 40 minutes. The incubation was followed by the addition of 10 μL of HTRF detection buffer supplemented with Europium cryptate-labeled anti-human IgG (PerkinElmer-AD0212) specific for Fc and anti-His antibody conjugated to SureLight®-Allophycocyanin (APC, PerkinElmer-AD0059H). After centrifugation, the plate was incubated at 25° C. for 60 min. before reading on a PHERAstar FS plate reader (665 nm/620 nm ratio). Final concentrations in the assay were—3 nM PD1, 10 nM PD-L1, 1 nM europium anti-human IgG and 20 nM anti-His-Allophycocyanin. IC50 determination was performed by fitting the curve of percent control activity versus the log of the inhibitor concentration using the GraphPad Prism 5.0 software.
On the technique in general: In TR-FRET formats the signal depends on donor and acceptor labels being close together.

The subject of series [1] is U2OS/PD-L1 cells and Jurkat-PD-1-SHP cells. As to the kind of experiment: Src homology region 2 domain-containing phosphatase (SHP) assay. It is filed as cell-based. The conditions noted are these: Homo sapiens, U2OS; PathHunter chemiluminescence, 2 hours. The method, then: U2OS/PD-L1 cells (DiscoveRx Corporation) were maintained in McCoy's 5A medium with addition of 10% FBS, 0.25 μg/mL Puromycin. After removing the culture media, the cell medium was replaced with assay medium (RPMI1640 medium with 1% FBS). The U2OS/PD-L1 cells were then added in 384-well black clear bottom assay plate (CELLCOAT® Tissue Culture Plates, Greiner Bio-One) at 5000 cells per well in 20 μL assay medium. Test compounds were prepared by serial dilution in DMSO and 125 nL compound were first transferred to the 384 REMP plate well (Thermofisher) by ECHO liquid handler (Labcyte) followed with addition of 27.5 μL assay medium. 5 µL/well compounds in the assay medium were transferred to the cell plate with 0.05% DMSO in the final assay at 0.25 μM. Jurkat-PD-1-SHP cells (DiscoveRx Corporation) were cultured in RPMI1640 medium supplemented with 10% FBS, 250 μg/mL Hygromycin B, 500 μg/mL G418. After the replacement of culture media with assay medium, 5,000 Jurkat-PD-1-SHP cells in 20 μL were dispensed into each well. The assay plate was incubated at 37° C., 5% CO2 for 2 hours before 2.5 μL PathHunter reagent 1 (DiscoveRx Corporation) were added to each well. The assay plate was shaken for 1 min at 350 rpm in the dark followed with addition of 10 μL PathHunter reagent 2 (DiscoveRx Corporation). Chemiluminescent signal was recorded with TopCount reader (Perkin Elmer) after incubation at room temperature for 1 hour. Wells with DMSO were served as the positive controls and wells containing no cells were used as negative controls. IC50 determination was performed by fitting the curve of percentage of control activity versus the log of the compound concentration using the GraphPad Prism 6.0 software.

The subject of series [2] is PD-L1 aAPC/CHO-K1 cells and Jurkat-PD-1-NFAT effector cells. The experiment in a line: Nuclear factor of activated T-cells (NFAT) assay. Format: cell-based. The following applies: Cricetulus griseus, CHO-K1; luminescence, 24 hours. The method, then:
PD-L1 aAPC/CHO-Klcells (Promega) were maintained in F-12 medium with addition of 10% FBS, 200 μg/mL Hygromycin B, 250 μg/mL Geneticin (G418). Jurkat-PD-1-NFAT effector cells (Promega) were cultured in RPMI 1640 medium supplemented with 10% FBS, 100 μg/mL Hygromycin B, 500 μg/mL G418. The culture media of PD-L1 aAPC/CHO-K1 cells were first replaced with assay medium (RPMI1640 medium with 1% FBS). The PD-L1 aAPC/CHO-Klcells were then added in a white 384-well white clear bottom assay plate (CELLCOAT® Tissue Culture Plates, Greiner Bio-One) at 8000 per well in 10 μL assay medium. Test compounds were prepared by serial dilution in DMSO and 0.8 μL test compounds in DMSO were first transferred to the 384 REMP plate well (Thermofisher) by PlateMate Plus (Thermofisher) followed with addition of 50 μL plating medium. 5 μL compounds in the assay medium were transferred to the cells with 0.4% DMSO in the final assay at 2 μM. After removing the culture media, 10,000 Jurkat-PD-1-NFAT effector cells in 5 μL assay medium was dispensed into each well. The assay plate was incubated at 37° C., 5% CO2 for 24 hours. After the assay plate was equilibrated to room temp for 15 minutes, 20 μL/well of Bio-Glo™ reagent (Promega) were added. After 8 minutes incubation at room temperature, luminescence was read at with Pherastar microplate reader (BMG Labtech). The fold of induction (FOI) was calculated based on the ratio of luminescence normalized to the DMSO wells within each assay plate. The maximum percentage of induction was reported based on the ratio between the highest FOI of each compound and the maximum FOI of control compound within each assay plate. Wells with DMSO were served as the negative controls and wells containing control compound with the highest FOI were used as positive controls. EC50 determination was performed by fitting the curve of percent control activity versus the log of the compound concentration using the GraphPad Prism 6.0 software.

Another series deals with PD-L1 (Homo sapiens (Human), UniProt Q9NZQ7). The experiment in a line: PD-L1 whole blood internalization assay. Format: cell-based. The conditions noted are these: PD-L1 internalization in human whole blood, CD14+ cells, interferon γ, 24 hour. The method, then:
To determine PD-L1 internalization in human whole blood, normal human blood (Biological Specialty Corp, Colmar. Pa.) was incubated in the presence or absence of a concentration range of test compounds and 1 ng/mL human interferon γ (R&D Systems Inc. Minn. […] Blood was then stained with PD-L1 (MIH1, eBioscience; or BD Biosciences San Jose, Calif.), CD14 (Life Technologies, Carlsbad, Calif.) for 30 minutes in the dark at room temperature. Whole Blood/red cells were lysed/fixed (lysis buffer BD Biosciences) for 5 minutes at 37° C. in the dark and then centrifuged at 1600 RPM for 5 minutes. Cells were resuspended in Stain Buffer (BD Bioscience, San Jose, Calif.) and transferred into 96 well round bottom plates (Corning). Cells were gated on CD14+(BD Biosciences) and PD-L1 expression determined by mean fluorescence intensity (MFI) (BD LSRFortessa™ X-20). IC50 determination was performed by fitting the curve of compound percent inhibition versus the log of the compound concentration using the GraphPad Prism 7.0 software.

A short description of series [3]: In vivo pharmacokinetics in rats. Details: species or system Sprague Dawley rats. The conditions noted are these: rat, cassette dosing. The method, then:
For in vivo pharmacokinetic experiments, test compounds were administered to male Sprague Dawley rats or male and female Cynomolgus monkeys intravenously or via oral gavage. For intravenous (IV) dosing, test compounds were dosed at 0.5 to 1 mg/kg using a formulation of 10% dimethylacetamide (DMAC) in acidified saline via IV bolus for rat and 5 min or 10 min IV infusion for monkey. For oral (PO) dosing, test compounds were dosed at 1.0 to 3.0 mg/kg using 5% DMAC in 0.5% methylcellulose in citrate buffer (pH 3.5). Blood samples were collected at predose and various time points up to 24 hours postdose. All blood samples were collected using EDTA as the anticoagulant and centrifuged to obtain plasma samples. The plasma concentrations of test compounds were determined by LC-MS methods. The measured plasma concentrations were used to calculate PK parameters by standard noncompartmental methods using Phoenix® WinNonlin software program (version 7.0, Pharsight Corporation).
In rats and monkeys, cassette dosing of test compounds were conducted to obtain preliminary PK parameters.

Where [4] appears, read: male, Sprague-Dawley, plasma, 1.0 mg/kg IV.

PD-1/PD-L1, sequence (Q9NZQ7 19-238): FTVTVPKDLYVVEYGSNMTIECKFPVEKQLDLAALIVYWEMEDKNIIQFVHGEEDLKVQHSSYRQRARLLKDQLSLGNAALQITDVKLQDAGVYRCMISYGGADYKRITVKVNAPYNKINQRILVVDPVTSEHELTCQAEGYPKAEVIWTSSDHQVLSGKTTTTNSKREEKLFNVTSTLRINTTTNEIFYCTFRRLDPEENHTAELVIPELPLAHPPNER
PD-L1, sequence (Q9NZQ7 19-290): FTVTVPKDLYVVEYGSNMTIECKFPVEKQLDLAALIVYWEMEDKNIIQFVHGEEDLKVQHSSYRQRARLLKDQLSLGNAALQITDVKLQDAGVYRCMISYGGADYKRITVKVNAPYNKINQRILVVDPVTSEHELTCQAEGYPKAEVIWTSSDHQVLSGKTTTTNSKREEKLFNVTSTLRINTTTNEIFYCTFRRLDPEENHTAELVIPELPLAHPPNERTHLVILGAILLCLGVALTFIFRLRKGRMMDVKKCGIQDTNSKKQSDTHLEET

As for `Cc1c(Nc2nc(C(F)F)nc3cc(CN4CC[C@H](O)C4)cnc23)cccc1-c1cccc(NC(=O)c2nc3c(n2C)CCN(CCC24CCC(C(=O)O)(CC2)C4)C3)c1Cl` [Example 3, (S)-4-(2-(2-((2-chloro-3′-((2-(difluoromethyl)-7-((3-hydroxypyrrolidin-1-yl)methyl)pyrido[3,2-d]pyrimidin-4-yl)amino)-2′-methyl-[1,1′-biphenyl]-3-yl)carbamoyl)-1-methyl-1,4,6,7-tetrahydro-5H-imidazo[4,5-c]pyridin-5-yl)ethyl)bicyclo[2.2.1]heptane-1-carboxylic Acid], the IC50 (as a rule, the point on the concentration scale where inhibition reaches its midpoint) was found to be 1.5 nM at PD-1/PD-L1, 2.5 nM in series [1] and 18 nM against PD-L1. Moreover, in series [2], it took 4 nM to reach a half-maximal effect (EC50).

Turning to `Cc1c(Nc2nc(C(F)F)nc3cc(CN4CC[C@](C)(O)C4)cnc23)cccc1-c1cccc(NC(=O)c2nc3c(n2C)CCN(CCC24CCC(C(=O)O)(CC2)C4)C3)c1Cl` [Example 4, (S)-4-(2-(2-((2-chloro-3′-((2-(difluoromethyl)-7-((3-hydroxy-3-methylpyrrolidin-1-yl)methyl)pyrido[3,2-d]pyrimidin-4-yl)amino)-2′-methyl-[1,1′-biphenyl]-3-yl)carbamoyl)-1-methyl-1,4,6,7-tetrahydro-5H-imidazo[4,5-c]pyridin-5-yl)ethyl)bicyclo[2.2.1]heptane-1-carboxylic Acid], the IC50 stood at 1.9 nM on PD-1/PD-L1, 3.5 nM in series [1] and 17 nM against PD-L1. Besides, the EC50 (in general, the concentration giving half of the maximal effect) in series [2] was determined as 4 nM.

Regarding `Cc1c(NC(=O)c2nc3c(n2C)CCN(CCC24CCC(C(=O)O)(CC2)C4)C3)cccc1-c1cccc(Nc2nc(C(F)F)nc3cc(CN4CC[C@@](C)(O)C4)cnc23)c1C` [Example 6, (R)-4-(2-(2-((3′-((2-(difluoromethyl)-7-((3-hydroxy-3-methylpyrrolidin-1-yl)methyl)pyrido[3,2-d]pyrimidin-4-yl)amino)-2,2′-dimethyl-[1,1′-biphenyl]-3-yl)carbamoyl)-1-methyl-1,4,6,7-tetrahydro-5H-imidazo[4,5-c]pyridin-5-yl)ethyl)bicyclo[2.2.1]heptane-1-carboxylic Acid], the IC50 in series [1] was 2.2 nM; on PD-L1, 31 nM. The midpoint of the response in series [2], the EC50, lay at 8.2 nM. Besides, in series [3] (setting [4]), the clearance (commonly the rate of elimination divided by the concentration) is 12.7 mL/min/kg. The half-life (commonly the time in which the quantity being followed falls by half) in series [3] (setting [4]) was 4.5 h. Further, in series [3] (male, Sprague-Dawley, plasma, 1.0 mg/kg IV, read-out: Vss), the Vd stood at 2.99 L/kg. Further, the Cmax (as a rule, the maximum level reached in the sampled fluid or tissue) in series [3] (male, Sprague-Dawley, plasma, 3.0 mg/kg PO) came out at 182 nM. Moreover, the AUC(0-inf) in series [3] (male, Sprague-Dawley, plasma, 3.0 mg/kg PO, read-out: AUC0-inf) came to 1.43 µM·h. In series [3] (3.0 mg/kg PO), this compound had an F of 30%.

`Cc1c(Nc2nc(C(F)F)nc3cc(CN4CCCC4)cnc23)cccc1-c1cccc(NC(=O)c2nc3c(n2C)CCN(CCC24CCC(C(=O)O)(CC2)C4)C3)c1Cl` [Example 7, 4-(2-(2-((2-chloro-3′-((2-(difluoromethyl)-7-(pyrrolidin-1-ylmethyl)pyrido[3,2-d]pyrimidin-4-yl)amino)-2′-methyl-[1,1′-biphenyl]-3-yl)carbamoyl)-1-methyl-1,4,6,7-tetrahydro-5H-imidazo[4,5-c]pyridin-5-yl)ethyl)bicyclo[2.2.1]heptane-1-carboxylic Acid]: the IC50 came to 1.5 nM on PD-1/PD-L1, 2.2 nM in series [1] and 16 nM on PD-L1. In series [2], this compound came in with an EC50 of 4 nM.

Regarding `Cc1c(Nc2nc(C(F)F)nc3cc(CN4CCC[C@H]4C)cnc23)cccc1-c1cccc(NC(=O)c2nc3c(n2C)CCN(CCC24CCC(C(=O)O)(CC2)C4)C3)c1Cl` [Example 8, (R)-4-(2-(2-((2-chloro-3′-((2-(difluoromethyl)-7-((2-methylpyrrolidin-1-yl)methyl)pyrido[3,2-d]pyrimidin-4-yl)amino)-2′-methyl-[1,1′-biphenyl]-3-yl)carbamoyl)-1-methyl-1,4,6,7-tetrahydro-5H-imidazo[4,5-c]pyridin-5-yl)ethyl)bicyclo[2.2.1]heptane-1-carboxylic Acid], the IC50 is 1.5 nM on PD-1/PD-L1, 4 nM in series [1] and 33 nM against PD-L1. This compound gave an EC50 in series [2] of 7 nM.

`Cn1c(C(=O)Nc2cccc(-c3cccc(NC(=O)c4nc5c(n4C)CCN(C4CCOCC4)C5)c3Cl)c2Cl)nc2c1CCN(CC13CCC(C(=O)O)(CC1)C3)C2` [Example 179, reference compound]: the IC50 at PD-1/PD-L1 was 18 nM; in series [1] it was 61 nM. The compound further returned an EC50 in series [2] of 709 nM.
